Assay results taken from publication PMC6017616, “Synthesis and Evaluation of the Antioxidant Activity of Lipophilic Phenethyl Trifluoroacetate Esters by In Vitro ABTS, DPPH and in Cell-Culture DCF Assays” (Molecules : A Journal of Synthetic Chemistry and Natural …, 2018).
Where a name gives a salt, the structure may show the parent alone. Values belong to the compound of their own block, whether it stands above or below them.

Key:
L6 myoblasts = assay: Intracellular ROS determination (DCF assay) in L6 myoblasts; type: cell-based, rat; conditions: for antioxidant activity in cells, DCF assay: L6 and THP-1 cells; for activity at 10 µM: Rattus norvegicus, L6, 10 min, L-6 cells, compound 10 µM, 200 µM cumene hydroperoxide, ΔF/10 min, read-out: Intracellular ROS, DCF fluorescence (Mean) relative to cumene hydroperoxide alone (100%)
Procedure: (§1) The fluorometric DCF assay is a useful technique to evaluate the antioxidant activity of compounds in cells exposed to oxidative stress induced by cumene hydroperoxide. The analyses were carried out in two different cell lines particularly sensitive to radical production: L6 myoblasts from rat skeletal muscle and THP-1 human leukemic monocytes.
(§2) The antioxidant activity of each compound was measured by a standard intracellular fluorescent probe (DCF) assay using L6 myoblasts and THP-1 monocytes exposed to oxidative stress by the addition of cumene hydroperoxide, a radical generator. Fluorescence was measured over a 10-min period, and the ability of the compounds to eliminate the increased ROS production was determined. For L6 myoblasts, growing attached to the bottom of the flask, the medium was discarded and cells were washed twice with 5 mL phosphate buffered saline (PBS) containing 5.0 mM glucose (PBS-glucose) at 37 °C. Cells were gently scraped off with PBS-glucose at 37 °C and centrifuged at 1200 rpm for 5 min (approximately 100× g). The supernatant was discarded and the pellet resuspended in PBS-glucose. Incubation with the probe DCFH2-DA at a final concentration of 10 µM (from a stock solution of 10 mM in DMSO) was carried out for 30 min at 37 °C in the dark. At the end of the incubation, cells were washed twice, centrifuged at 1200 rpm for 5 min, and the final cell pellet was resuspended in PBS-glucose. Before the experiment was initiated, cells were allowed to recover for 1 h at room temperature in the dark. The THP-1 monocytes, growing in suspension, were centrifuged at 1200 rpm for 10 min. The supernatant was discarded, and cells were washed twice with 5 mL PBS-glucose at 37 °C to remove the serum. The pellet was successively resuspended in PBS-glucose, and the probe DCFH2-DA was added at 10 µM final concentration. From that point onwards, the protocols for the two cell types were identical. Intracellular fluorescence was measured at 37 °C using a Perkin Elmer VICTOR 3V spectrofluorometer (excitation at λ = 498 nm and emission at λ = 530 nm). […] Cells were incubated with compounds at the final designated concentration for 10 min at 37 °C before addition of the radical generator. The decrease in the intracellular DCF fluorescence relative to the fluorescence change induced by 200 μM cumene hydroperoxide alone (100%), reported as ΔF/10 min, determined the antioxidant activities. Data are reported as the mean ± standard deviation of at least four different experiments carried out in triplicate. One-way ANOVA test (non-parametric) and Bonferroni post-test (comparing all pairs of columns) were used for the statistical analyses.

ABTS assay (TEAC) = conditions: for Trolox Equivalent Antioxidant Capacity (TEAC): ethanol, room temperature, 734 nm, 2 min, extrapolated at 10 μM, Trolox mM equivalent
Procedure: The antioxidant capacity of compounds 1–12 was measured according to the method of Pellegrini et al. but working at room temperature. 6-Hydroxy-2,5,7,8-tetramethylchroman-2-carboxylic acid (Trolox) was used as reference. The analyses were carried out in ethanol (0.2% of water) at room temperature and the absorbance was measured at λ = 734 nm. Each sample (1.0 mL) of ABTS^+• was obtained from the aqueous mother solution by dilution with ethanol to an absorbance of […], and 10 μL of the ethanol solution of the antioxidant was added. All compounds were analyzed at four different final concentrations ranging from 1 to 10 μM. The absorbance was measured after 2 min. Four measurements were recorded for each concentration. Each time blanks of pure solvent were run. The standard deviations of data were all below 5%. The dose-response curves were expressed as the percentage of absorbance decrease (ABTS inhibition expressed as percentage) against the amount of antioxidant concentration. Linear regression was conducted using GraphPad Prism 4.01 (2004) software. The antioxidant capacities were extrapolated at 10 μM concentration and reported as Trolox Equivalent Antioxidant Capacity (TEAC), defined as the concentration (mmol/L) of Trolox having the antioxidant capacity equivalent to that of a 1.0 mmol/L solution of the substance under investigation. Results are expressed as mean ± standard deviation. Statistical analyses were performed using the Student’s t test. The level of significance was p < 0.05 for all data.

[1] = test system: THP-1 human leukemic monocytes; assay: Intracellular ROS determination (DCF assay) in THP-1 monocytes; type: cell-based; conditions: 10 min, THP-1 cells, compound 10 µM, 200 µM cumene hydroperoxide, ΔF/10 min, read-out: Intracellular ROS, DCF fluorescence (Mean) relative to cumene hydroperoxide alone (100%)
Procedure: as §1, §2

[2] = Measurement of partition coefficient (logP) by UV-Vis spectrophotometry; type: physicochemical; conditions: 1-octanol / phosphate buffer 0.1 M pH 7.4; mean of triplicate determinations
Source text: Lipophilicity is a relevant property to estimate the bioavailability and dispersion of a molecule in non-aqueous media (oils, fats, and emulsions) and in the cellular environment. Generally, it can be related to logP, a parameter that evaluates the partition of a molecule between two immiscible solvents (water and 1-octanol). […] As already reported in the literature, the lipophilic character increased from hydroxytyrosol 6 to homovanillyl alcohol 5 and tyrosol 4.
The logP value of all compounds was determined as reported in the literature by UV-Vis spectrophotometry. The partition coefficient (logP) was calculated according to the following relationship: logP = logAx/(A0 − Ax). A0 was the maximum of absorbance of a solution 0.15 mM of each compound dissolved in 1-octanol; Ax is the maximum of absorbance of the organic solution containing the compound after separation from the phosphate buffer (0.1 M, pH 7.4) solution. A solution of 1-octanol saturated with the buffer was used as a blank.

THP-1 cells = assay: Proliferation curves (cell counts) in THP-1 cells; type: cell-based, human; conditions: 10 µM, absence or presence of cumene hydroperoxide 200 µM
Procedure: (§3) L6 cells were seeded in 60 × 15 mm Petri dishes in 4 mL of the complete growth medium at a density of approximately 10^5 cells/well. The following day, the cells were exposed to the selected compounds 1, 5–7, 11, and 12 at a final concentration of 10 µM in the absence and presence of cumene hydroperoxide (40 µM). Cell counts using a Neubauer chamber were made every 24 h up to confluence. Each time the L6 myoblasts had to be counted, they first underwent a mild trypsinization. THP-1 cells were seeded in 24-well plates in 1 mL of the growth medium. After 24 h, the cells were exposed to 10 µM of the same compounds in the absence and presence of cumene hydroperoxide (200 µM) and incubated for an additional 24 h. Cell counts using a Neubauer chamber were made every 24 h up to confluence. The results are given as the mean ± standard deviation of two different experiments.

L6 cells = assay: Proliferation curves (cell counts) in L6 cells; type: cell-based, rat; conditions: 10 µM, absence or presence of cumene hydroperoxide 40 µM
Procedure: as §3

Compound: OCCc1ccccc1 [Compound 1, phenethyl alcohol]
antioxidant activity in cells, DCF assay (L6 myoblasts): good antioxidant activity
activity at 10 µM (L6 myoblasts): 31%
antiradical activity / antioxidant capacity in ABTS assay (ABTS assay (TEAC)): very low antiradical activity
Trolox Equivalent Antioxidant Capacity (TEAC) (ABTS assay (TEAC)): 0.00 mM
activity at 10 µM [1]: 33%

logP [2]: 0.72 ± 0.07
Compound: OCCc1ccccc1O [Compound 2, 2-hydroxyphenethyl alcohol]
activity at 10 µM (L6 myoblasts): 23%
antiradical activity / antioxidant capacity in ABTS assay (ABTS assay (TEAC)): good antioxidant capacity
Trolox Equivalent Antioxidant Capacity (TEAC) (ABTS assay (TEAC)): 0.69 mM
activity at 10 µM [1]: 25%

logP [2]: 0.66 ± 0.06
Compound: OCCc1cccc(O)c1 [Compound 3, 3-hydroxyphenethyl alcohol]
activity at 10 µM (L6 myoblasts): 25%
Trolox Equivalent Antioxidant Capacity (TEAC) (ABTS assay (TEAC)): 0.43 mM
activity at 10 µM [1]: 23%

logP [2]: 0.69 ± 0.05
Compound: OCCc1ccc(O)cc1 [Compound 4, 4-hydroxyphenethyl alcohol]
activity at 10 µM (L6 myoblasts): 41%
Trolox Equivalent Antioxidant Capacity (TEAC) (ABTS assay (TEAC)): 0.45 mM
activity at 10 µM [1]: 25%

logP [2]: 0.46 ± 0.02
Compound: COc1cc(CCO)ccc1O [Compound 5, 4-hydroxy-3-methoxyphenethyl alcohol]
effect on cell proliferation (cell counts) (THP-1 cells): inhibited THP-1 tumor cell growth
activity at 10 µM (L6 myoblasts): 22%
antiradical activity / antioxidant capacity in ABTS assay (ABTS assay (TEAC)): good antioxidant capacity
Trolox Equivalent Antioxidant Capacity (TEAC) (ABTS assay (TEAC)): 0.81 mM
activity at 10 µM [1]: 21%
effect on cell proliferation (cell counts) (L6 cells): promoted L6 myoblast proliferation

logP [2]: 0.1 ± 0.01
Compound: OCCc1ccc(O)c(O)c1 [Compound 6, 3,4-dihydroxyphenethyl alcohol]
activity at 10 µM (L6 myoblasts): 7%
antiradical activity / antioxidant capacity in ABTS assay (ABTS assay (TEAC)): good antioxidant capacity
Trolox Equivalent Antioxidant Capacity (TEAC) (ABTS assay (TEAC)): 0.68 mM
activity at 10 µM [1]: 14%

Compound: O=C(OCCc1ccccc1)C(F)(F)F [Compound 7, Phenethyl trifluoroacetate]
antioxidant activity in cells, DCF assay (L6 myoblasts): good antioxidant activity
activity at 10 µM (L6 myoblasts): 29%
antiradical activity / antioxidant capacity in ABTS assay (ABTS assay (TEAC)): very low antiradical activity
Trolox Equivalent Antioxidant Capacity (TEAC) (ABTS assay (TEAC)): 0.00 mM
activity at 10 µM [1]: 30%
logP [2]: 2.38 ± 0.18

Compound: O=C(OCCc1ccccc1O)C(F)(F)F [Compound 8, 2-Hydroxyphenethyl trifluoroacetate]
activity at 10 µM (L6 myoblasts): 26%
antiradical activity / antioxidant capacity in ABTS assay (ABTS assay (TEAC)): good antioxidant capacity
Trolox Equivalent Antioxidant Capacity (TEAC) (ABTS assay (TEAC)): 0.75 mM
activity at 10 µM [1]: 25%
logP [2]: 2.05 ± 0.16

Compound: O=C(OCCc1cccc(O)c1)C(F)(F)F [Compound 9, 3-Hydroxyphenethyl trifluoroacetate]
activity at 10 µM (L6 myoblasts): 25%
Trolox Equivalent Antioxidant Capacity (TEAC) (ABTS assay (TEAC)): 0.38 mM
activity at 10 µM [1]: 28%
logP [2]: 1.96 ± 0.14

Compound: O=C(OCCc1ccc(O)cc1)C(F)(F)F [Compound 10, 4-Hydroxyphenethyl trifluoroacetate]
activity at 10 µM (L6 myoblasts): 21%
Trolox Equivalent Antioxidant Capacity (TEAC) (ABTS assay (TEAC)): 0.36 mM
activity at 10 µM [1]: 20%
logP [2]: 1.98 ± 0.14

Compound: COc1cc(CCOC(=O)C(F)(F)F)ccc1O [Compound 11, 4-Hydroxy-3-methoxyphenethyl trifluoroacetate]
activity at 10 µM (L6 myoblasts): 20%
antiradical activity / antioxidant capacity in ABTS assay (ABTS assay (TEAC)): good antioxidant capacity
Trolox Equivalent Antioxidant Capacity (TEAC) (ABTS assay (TEAC)): 0.87 mM
activity at 10 µM [1]: 23%
logP [2]: 1.9 ± 0.12

Compound: O=C(OCCc1ccc(O)c(O)c1)C(F)(F)F [Compound 12, 3,4-Dihydroxyphenethyl trifluoroacetate]
activity at 10 µM (L6 myoblasts): 4%
antiradical activity / antioxidant capacity in ABTS assay (ABTS assay (TEAC)): good antioxidant capacity
Trolox Equivalent Antioxidant Capacity (TEAC) (ABTS assay (TEAC)): 0.77 mM
activity at 10 µM [1]: 16%
logP [2]: 1.62 ± 0.12

Compound: Cc1c(C)c2c(c(C)c1O)CCC(C)(C(=O)O)O2 (stereo not drawn) [Trolox, 6-Hydroxy-2,5,7,8-tetramethylchroman-2-carboxylic acid]
Trolox Equivalent Antioxidant Capacity (TEAC) (ABTS assay (TEAC)): 1.00 mM
